Experiments:
[1] = biological target: mycothiol S-conjugate amidase in partially purified M. smegmatis cell extract (Mycolicibacterium smegmatis, UniProt A0R2W9); details: for product yielded from 1.0 equivalent of MSmB (0.1 nmol): 4 determinations at >50% conversion
Procedure: The experiment was repeated using a partially purified cell extract and samples of the incubation mixture were analyzed at intervals for the other potential product of MSmB cleavage, GlcN-Ins, as well as for MSmB and AcCySmB.
A preparation of the mycothiol S-conjugate amidase (30–50% saturated ammonium sulfate fraction chromatographed on Sephadex G-75) was used to study the stoichiometry of the reaction. Reaction was initiated by mixing a sample (9 μL, 7 μg total protein) of the preparation of the enzyme with 0.9 mL of 50 mM sodium phosphate, pH 7.5 containing 100 μM MSmB.
For determination of bimane derivatives of thiols, a sample (70 μL) of reaction mixture was removed, mixed with 4 μL 5 M methanesulfonic acid, and analyzed by HPLC without dilution.
For analysis of GlcN-Ins, a sample (2–8 μL) of the reaction mixture was mixed with enough 1M HEPES chloride pH 8 to bring the volume to 10 μl and then with 5 μL acetonitrile and 5 μL of 10 mM AccQ-Fluor reagent (6-aminoquinolyl-N-hydroxysuccinimidyl carbamate, Waters). The mixtures were incubated for 1 min at room temperature followed by 10 min at 60° C., diluted with 60 μL of water, and quantified by HPLC as previously described (S. J. Anderberg, et al. (1998) supra.).

[2] = biological target: T1, purified M. smegmatis mycothiol S-conjugate amidase (Mycolicibacterium smegmatis, UniProt A0R2W9)
Procedure: In vitro Enzymatic assays. […] Separation of the various modified thiols was performed by high-pressure liquid chromatography (HPLC). A sample (2–10 μL) of extract was mixed with 40 μL of 30 μM MSmB in 3 mM 2-mercaptoethanol, 25 mM N-2-hydroxyethylpiperazine-N′-2-ethanesulfonic acid (HEPES) chloride pH 7.5 and reacted […] at 30° C. before quenching the reaction with 50 μL of 40 mM methanesulfonic acid on ice. The mixture was centrifuged for 3 min at 14,000×g in a microcentrifuge at room temperature and the supernatant analyzed by HPLC without dilution. A shortened version (45 min) of HPLC method 1 of Fahey and Newton (R. C. Fahey, et al. (1987) Methods Enzymol. 143:85–96) was used for separation of MSmB and AcCySmB.

[3] = biological target: M. tuberculosis mycothiol S-conjugate amidase (Rv1082) (Mycobacterium tuberculosis, UniProt P9WJN1); test: Amidase activity of recombinant Rv1082 protein expressed in E. coli; assay type: biochemical, Mycobacterium tuberculosis H37Rv; details: for amidase activity: 0.1 mM (100 μM) substrate, extracts of IPTG-induced cells
M. tuberculosis mycothiol S-conjugate amidase (Rv1082), sequence (P9WJN1 whole entry, looked up): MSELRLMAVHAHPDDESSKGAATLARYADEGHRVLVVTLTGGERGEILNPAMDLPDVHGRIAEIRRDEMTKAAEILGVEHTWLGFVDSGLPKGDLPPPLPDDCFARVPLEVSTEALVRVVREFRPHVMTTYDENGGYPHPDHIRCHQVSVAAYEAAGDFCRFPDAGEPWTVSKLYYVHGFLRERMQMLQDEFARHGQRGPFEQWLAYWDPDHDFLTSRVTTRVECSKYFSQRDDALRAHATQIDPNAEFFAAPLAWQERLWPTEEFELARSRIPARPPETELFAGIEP
Procedure: Purification and renaturation of mycothiol S-conjugate amidase from inclusion bodies. The approach taken involved solublization of the inclusion bodies in a highly concentrated urea and DTT solution followed by […] Cells were cultured in Luria Bertani broth containing 100 μg/mL ampicillin at 37° C. to OD600=0.8 when isopropyl-β-D-thiogalactopyranoside added to 0.4 mM and the culture was shaken overnight at 25° C. Cells were pelleted by centrifugation for 10 min at 5000 g and 4° C., sonicated in 5 volumes of assay buffer on ice, and centrifuged for 5 min at 14000 g at room temperature. About 85% of the amidase activity, using MSmB as substrate, was associated with the pellet fraction which was resuspended and incubated with periodic vortexing for 1 h at 37° C. in 8 M urea containing 20 mM DTT. The suspension was centrifuged for 3 min at 14000 g and the supernatant dialyzed against 100 volumes of 25 mM HEPES chloride pH 7.5 containing 1 mM glutathione disulfide and 2 mM glutathione for 15 h, and then against 100 volumes of 25 mM HEPES chloride pH 7.5 containing 3 mM 2-mercaptoethanol for 4 h. After centrifugation, the supernatant contained soluble amidase activity and was assayed with 0.1 mM mycothiol and 0.1 mM MSmB as described above.
Alkylation of MSH with mBBr produces the fluorescent S-conjugate, MSmB, which can be quantitated by HPLC with fluorescence detection (Newton et al. 1995; Newton et al. 1996). E coli has no mycothiol metabolism and is not expected to contain mycothiol conjugate amidase endogenous proteins that would give background to these assays.
Functional and Comparative analysis of mycothiol S-conjugate amidase. […] When these extracts were assayed with 0.1 mM mycothiol as substrate, <0.002 nmol/min/mg amidase activity was observed. […] (Table 2).

[4] = biological target: T1, purified M. smegmatis mycothiol S-conjugate amidase; test: Substrate specificity of purified mycothiol S-conjugate amidase (GlcN-Ins production); assay type: biochemical, Mycobacterium smegmatis; details: for Activity: GlcN-Ins production from 0.1 mM substrate by 0.022 μg purified amidase at 30 C; for Relative Activity (%): relative to MSmB taken as 100%, 0.1 mM substrate
Procedure: The specificity of the amidase for substrate was assessed by measuring the production of GlcN-Ins in most cases. A sample (5 μL) of 1 mM substrate was mixed with 40 μL of 3 mM 2-mercaptoethanol, 25 mM HEPES chloride, pH 7.5. The reaction was initiated with 5 μL of purified amidase (50-fold diluted stock, 4.4 μg ml^−1). Triplicate samples were quenched at 0, 10, and 30 min by mixing each sample with 50 μL of acetonitrile containing 5 mM NEM and incubating at 60 C for 10 min. After cooling on ice, the samples were clarified by centrifugation for 15 min at 14000 g. […]

[5] = biological target: M. smegmatis mycothiol S-conjugate amidase (Mycolicibacterium smegmatis, UniProt A0R2W9); test: Inhibition of amidase cleavage of MSmB; assay type: biochemical, Mycobacterium smegmatis; details: 100 μM MSmB as substrate, n=2
M. smegmatis mycothiol S-conjugate amidase, sequence (A0R2W9 whole entry): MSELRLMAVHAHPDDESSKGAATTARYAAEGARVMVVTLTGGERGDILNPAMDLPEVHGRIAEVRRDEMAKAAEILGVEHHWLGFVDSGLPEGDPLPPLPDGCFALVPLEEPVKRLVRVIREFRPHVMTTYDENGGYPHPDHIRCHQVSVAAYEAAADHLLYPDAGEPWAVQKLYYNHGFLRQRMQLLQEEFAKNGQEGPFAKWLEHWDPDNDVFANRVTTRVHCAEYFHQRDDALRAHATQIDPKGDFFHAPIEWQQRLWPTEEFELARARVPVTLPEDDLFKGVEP
Procedure: Tests were also conducted to determine whether mycothiol inhibits the cleavage of 100 μM MSmB by invention S-conjugate amidase. The amidase activity was decreased by 30±3, 48±3, and 89±3% (n=2) at 1, 3, and 10 mM mycothiol, respectively.
Preparation of Mycothiol S-conjugates. Mycothiol S-conjugates were prepared by reaction of excess electrophile with mycothiol followed by removal or reaction of excess electrophile. Stock solutions (100 mM) of electrophile were prepared in acetonitrile (NEM, iodoacetamide; Sigma) or in dimethylsulfoxide [7-diethylamino-3-(4′-maleimidylphenyl)-4-methylcoumarin (CPM, Molecular Probes), 3-(N-maleimidopropionyl)biocytin (MPB, Sigma)]. Reaction with these electrophiles at 2 mM in 25 mM *HEPES chloride pH 7.5 was initiated by addition of mycothiol to 1 mM from a 32 mM stock solution in H2O (pH˜3) and was allowed to proceed 15 min in the dark. Excess reagent was removed by extracting 3 times with an equal volume of H2O-saturated dichloromethane. A cerulenin (Sigma) stock solution (100 mM in acetonitrile) was diluted 5-fold in 25 mM HEPES chloride pH 7.5, reacted 15 min with 1 mM mycothiol, and extracted 5 times with H2O-saturated dichloromethane. Prior to extraction a 1 μL aliquot was withdrawn for reaction with mBBr and analysis of residual mycothiol by HPLC. […] Stock solutions (50 mM) of p-sulfobenzoyloxybromobimane (sBBr) and monobromotrimethylammoniobimane (qBBr) were prepared in 50% aqueous dimethylsulfoxide and diluted to 2 mM for reaction with 1 mM mycothiol in 25 mM HEPES chloride pH 7.5 for 15 min. Since these charged electrophiles cannot be extracted with dichloromethane, reaction was terminated with excess (1.1 mM) 2-mercaptoethanol.

[6] = test system: M. smegmatis mc^2155 cells; test: M. smegmatis culture treated with mBBr: fate of mycothiol-related compounds and growth; assay type: cell-based, Mycobacterium smegmatis
Procedure: Since mBBr is known to penetrate cells rapidly and to convert intracellular thiols to their bimane derivatives (Newton, et al. (1995) supra.), the fate of mycothiol in M. smegmatis cells treated with mBBr was examined to ascertain whether the reaction shown in FIG. 1C occurs in vivo. A logarithmic phase culture of M. smegmatis was cooled on ice to ˜3° C. to reduce enzymatic reactions prior to reaction with 0.5 mM mBBr. Excess reagent was reacted with 2-mercaptoethanol and the cells were pelleted, washed, and resuspended in a small amount of ice cold medium. The cells were diluted with prewarmed medium and replaced in the shaking incubator at 37° C. (time, t=0). Samples were removed and analyzed for intracellular and extracellular mycothiol related compounds over a 4 h interval (FIG. 3).
A logarithmic phase culture of M. smegmatis was cooled on ice to ˜3° C. to reduce enzymatic reactions prior to reaction with 0.5 mM mBBr. Excess reagent was reacted with 2-mercaptoethanol and the cells were pelleted, washed, and resuspended in a small amount of ice cold medium. The cells were diluted with prewarmed medium and replaced in the shaking incubator at 37° C. (time, t=0). Samples were removed and analyzed for intracellular and extracellular mycothiol related compounds over a 4 h interval (FIG. 3).
At t=0, […] per 100 mL (3.5 μmol per g RDW) of AcCySmB was present in the cells and […] per 100 mL was found in the medium. Within 5 min the cellular AcCySmB level had fallen to […] per 100 mL and the medium level increased to 220 nmol per 100 mL. Subsequent analyses found essentially all of the AcCySmB in the medium at a level of 225–230 nmol per 100 mL, accounting for 80–90% of the original cellular mycothiol content. No MSmB appears to be exported from cells as […] (<0.5%) was detected in the medium or the cell washes. A logarithmic phase culture (1 L) of M. smegmatis mc^2155 (OD600=1.2) in 7H9 Middlebrook medium was cooled on ice to 3° C. The iced culture was incubated with mBBr (0.5 mM from a 180 mM stock solution in acetonitrile) for 20 min; excess 2-mercaptoethanol (1.0 mM) was added, and the incubation continued on ice for an additional 10 min. The cells were pelleted by centrifugation and washed twice with 200 mL of sterile, ice-cold 7H9 Middlebrook medium to remove excess bimane derivative of 2-mercaptoethanol. The cells were resuspended in 50 mL of sterile ice cold medium and the experiment was initiated (t=0) by dilution into 950 mL of prewarmed (37° C.) 7H9 Middlebrook medium. The cell suspension was shaken in an incubator (225 rpm, 37° C.) and a “t=0” sample (100 mL) was removed from the culture within one min. […]

[7] = test system: M. smegmatis mutant blocked in mycothiol production; details: Newton et al. (1999); cited from earlier work
[8] = 0.1 mM substrate, resolubilized crude protein extract

T1 sequence (A0R2W9 whole entry): as above
mycothiol S-conjugate amidase in partially purified M. smegmatis cell extract, sequence (A0R2W9 whole entry): as above

CC(=O)N[C@@H](CSCc1c(C)c(=O)n2c(=O)c(C)c(C)n12)C(=O)O [AcCySmB]
product yielded from 1.0 equivalent of MSmB (0.1 nmol) [1]: 1.00±0.02 equivalent

N[C@H]1[C@@H](OC2[C@H](O)[C@H](O)C(O)[C@H](O)[C@H]2O)O[C@H](CO)[C@@H](O)[C@@H]1O (stereo partly drawn) [GlcN-Ins, 1-D-myo-inosityl-2-amino-2-deoxy-α-D-glucopyranoside]
product yielded from 1.0 equivalent of MSmB (0.1 nmol) [1]: 0.80±0.08 equivalent

CC(=O)N[C@@H](CSCc1c(C)c(=O)n2c(=O)c(C)c(C)n12)C(=O)N[C@H]1[C@@H](OC2[C@H](O)[C@H](O)C(O)[C@H](O)[C@H]2O)O[C@H](CO)[C@@H](O)[C@@H]1O (some centres unmarked) [MSmB]
specific activity of pooled G-100 peak fractions ([2]; 30 μM MSmB as substrate): ~3,000 nmol/min-mg protein
amidase reaction rate ([2]; 30 μM MSmB, purified amidase): ~3000 nmol/min/mg
Km ([2]; MSmB as substrate): 95 ± 8 µM
kcat ([2]; MSmB as substrate): 8 s⁻¹
amidase activity [3]: 4.1 nmol/min/mg
AcCysmB produced [3, 8]: 5.4±0.3 nmoles/min/mg protein
GlcN-Ins produced [3, 8]: 4.1±0.05 nmoles/min/mg protein
rate enhancement relative to mycothiol (free thiol) ([3]; recombinant M. tuberculosis amidase): more than 2000 fold
conversion of MSmB ([1]; 60 min at 23° C.): 97%
Activity [4]: 4480 ± 870 nmol/min/mg
Relative Activity (%) [4]: (100) %

CC(=O)N[C@@H](CSSC[C@H](NC(C)=O)C(=O)N[C@H]1[C@@H](OC2[C@H](O)[C@H](O)C(O)[C@H](O)[C@H]2O)O[C@H](CO)[C@@H](O)[C@@H]1O)C(=O)N[C@H]1[C@@H](OC2[C@H](O)[C@H](O)C(O)[C@H](O)[C@H]2O)O[C@H](CO)[C@@H](O)[C@@H]1O (some centres unmarked) [Mycothiol disulfide]
Activity [4]: 25 ± 1 nmol/min/mg
Relative Activity (%) [4]: 0.6%

CC(=O)N[C@@H](CS)C(=O)N[C@H]1[C@@H](OC2[C@H](O)[C@H](O)C(O)[C@H](O)[C@H]2O)O[C@H](CO)[C@@H](O)[C@@H]1O (stereo partly drawn) [Mycothiol, 1-D-myo-inosityl-2-(N-acetylcysteinyl)amido-2-deoxy-α-D-glucopyranoside]
decrease of amidase activity ([5]; 1 mM mycothiol): 30±3%
decrease of amidase activity ([5]; 3 mM mycothiol): 48±3%
decrease of amidase activity ([5]; 10 mM mycothiol): 89±3%
amidase activity [3]: < 0.002 nmol/min/mg
GlcN-Ins produced [3, 8]: < 0.0023 nmoles/min/mg protein
rate as % of the rate with 0.1 mM MSmB ([4]; 2 mM mycothiol): 0.3%
rate of GlcN-Ins formation ([4]; 2 mM mycothiol, conditions otherwise as for Table 2): 14 ± 1 nmol/min/mg
Activity [4]: 4 ± 1 nmol/min/mg
Relative Activity (%) [4]: 0.1%

Cc1c(C)n2c(CBr)c(C)c(=O)n2c1=O [mBBr, monobromobimane]
A600 ([6]; 8.5 h at 37 C after mBBr treatment): 1.6
final A600 ([6]; 30 h at 37 C after mBBr treatment): ~2.6
initial decrease of A600 value ([6]; during the 4 h incubation after 0.5 mM mBBr treatment): ~15%
A600 value recovered ([6]; within the 4 h incubation, equals initial value): 1.2

CO[C@H]1/C=C/O[C@@]2(C)Oc3c(C)c(O)c4c(O)c(c(/C=N/N5CCN(C)CC5)c(O)c4c3C2=O)NC(=O)/C(C)=C\C=C\[C@H](C)[C@H](O)[C@@H](C)[C@@H](O)[C@@H](C)[C@H](OC(C)=O)[C@@H]1C [rifampin]
increased sensitivity of the mutant [7]: 20 fold

— patent US7183094B2, “Bacterial mycothiol S-conjugate amidase family” (The Regents of the University of California, priority 1999, dated 2007)
